# Patent US20260294884A1 (Insilico Medicine IP Limited, priority 2023, published 2026)
# Legend:
# KAT6A = biological target: T1, KAT6A (Homo sapiens, UniProt Q92794); assay: KAT6A biochemical assay (radiometric [3H]-acetyl CoA, biotinylated H4 (1-30) peptide); settings: 60 min reaction, room temperature
# T1 construct: purchased Active Motif
# Protocol: Inhibition of KAT6A enzymatic activity by test compounds was determined using a radiometric 384-well format assay. A 10-point serial dilution of the test compounds were conducted in DMSO and then a volume of 200 nL was transferred into 384-well assay plate by Echo (Labcyte). 10 μL of 2×enzyme solution (5 nM KAT6A (Active Motif) in assay buffer (50 mM Tris —HCl pH 8.0, 50 mM KCl, 0.1 mM EDTA, 5% glycerol, 1 mM DTT)) was dispensed into assay plate except for low control wells, in which 10 μL of assay buffer was transferred. The plate was incubated at room temperature for 15 min before addition of 10 μL of 2×[^3H]-acetyl coenzyme A (Ac-COA) and substrate peptide mix solution (500 nM (KAT6A) [^3H]-Ac-COA (PerkinElmer) and 800 nM (KAT6A) biotinylated H4 (1-30) peptide (GL Biochem) in assay buffer) to each well to start reaction. The plate was incubated at room temperature for 60 min (KAT6A), and then the reaction was stopped by adding 10 μL of stop solution (cold Ac-COA (Cayman) in 1×assay buffer). […] The plate was read on Microbeta and the inhibition percentage of each compound treated well was calculated based on the equation inh %=(Max-sample)/(Max-Min)*100 where Max is signal from high control wells with enzyme, and Min is signal from low control wells with assay buffer only. […]
# [1] = Kinetic solubility in 50 mM phosphate buffer (pH 7.4); type: physicochemical; settings: versus compound 47
# Protocol: 10 μL of 10 mM in DMSO of test and control compounds was added into lower chambers of whatman miniuniprep vials, respectively. 490 μL of 50 mM PB (pH 7.4) was added into lower chambers of the whatman miniuniprep vials, respectively. The solubility samples were vortexted for at least 2 minutes. The miniuniprep vials were shaken on a shaker for 24 hours at room temperature at the speed of 800 rpm and then centrifuged for 20 minutes (eg. 4000 rpm). The miniunipreps were compressed to prepare the filtrates for injection into HPLC system to calculate the concentration with standard curve.
# Caco-2 cells = assay: Permeability, Caco-2 assay; type: in vitro ADME
# Protocol: Permeability of test compounds was determined in Caco-2 Assay. Caco-2 cells purchased from ATCC were seeded onto […] membranes (PET) in 96-well Corning Insert plates at 1×10^5 cells/cm^2, and refreshed medium every 4~5 days until to the 21st to 28th day for confluent cell monolayer formation. The transport buffer in the study was HBSS with 10.0 mM HEPES at pH 7.40±0.05. Test compound was tested at […] bi-directionally in duplicate. Digoxin was tested at 10.0 μM bi-directionally in duplicate, while nadolol and metoprolol were tested at 2.00 μM in A to B direction in duplicate. Final DMSO concentration was adjusted to less than 1%. The plate was incubated for 2 hours in CO2 incubator at 37±1° C., with 5% CO2 at saturated humidity without shaking. And all samples after mixed with acetonitrile containing internal standard were centrifuged at 3200×g for 10 min. For nadolol and metoprolol, 200 μL supernatant solution was diluted with 600 μL ultra-pure water for LC-MS/MS analysis. For digoxin and test compounds, 200 μL supernatant solution was diluted with 200 μL ultra-pure water for LC-MS/MS analysis. Concentrations of test and control compounds in starting solution, donor solution, and receiver solution were quantified by LC-MS/MS methodologies, using peak area ratio of analyte/internal standard. After transport assay, lucifer yellow rejection assay was applied to determine the Caco-2 cell monolayer integrity.
# T1 sequence (Q92794 whole entry): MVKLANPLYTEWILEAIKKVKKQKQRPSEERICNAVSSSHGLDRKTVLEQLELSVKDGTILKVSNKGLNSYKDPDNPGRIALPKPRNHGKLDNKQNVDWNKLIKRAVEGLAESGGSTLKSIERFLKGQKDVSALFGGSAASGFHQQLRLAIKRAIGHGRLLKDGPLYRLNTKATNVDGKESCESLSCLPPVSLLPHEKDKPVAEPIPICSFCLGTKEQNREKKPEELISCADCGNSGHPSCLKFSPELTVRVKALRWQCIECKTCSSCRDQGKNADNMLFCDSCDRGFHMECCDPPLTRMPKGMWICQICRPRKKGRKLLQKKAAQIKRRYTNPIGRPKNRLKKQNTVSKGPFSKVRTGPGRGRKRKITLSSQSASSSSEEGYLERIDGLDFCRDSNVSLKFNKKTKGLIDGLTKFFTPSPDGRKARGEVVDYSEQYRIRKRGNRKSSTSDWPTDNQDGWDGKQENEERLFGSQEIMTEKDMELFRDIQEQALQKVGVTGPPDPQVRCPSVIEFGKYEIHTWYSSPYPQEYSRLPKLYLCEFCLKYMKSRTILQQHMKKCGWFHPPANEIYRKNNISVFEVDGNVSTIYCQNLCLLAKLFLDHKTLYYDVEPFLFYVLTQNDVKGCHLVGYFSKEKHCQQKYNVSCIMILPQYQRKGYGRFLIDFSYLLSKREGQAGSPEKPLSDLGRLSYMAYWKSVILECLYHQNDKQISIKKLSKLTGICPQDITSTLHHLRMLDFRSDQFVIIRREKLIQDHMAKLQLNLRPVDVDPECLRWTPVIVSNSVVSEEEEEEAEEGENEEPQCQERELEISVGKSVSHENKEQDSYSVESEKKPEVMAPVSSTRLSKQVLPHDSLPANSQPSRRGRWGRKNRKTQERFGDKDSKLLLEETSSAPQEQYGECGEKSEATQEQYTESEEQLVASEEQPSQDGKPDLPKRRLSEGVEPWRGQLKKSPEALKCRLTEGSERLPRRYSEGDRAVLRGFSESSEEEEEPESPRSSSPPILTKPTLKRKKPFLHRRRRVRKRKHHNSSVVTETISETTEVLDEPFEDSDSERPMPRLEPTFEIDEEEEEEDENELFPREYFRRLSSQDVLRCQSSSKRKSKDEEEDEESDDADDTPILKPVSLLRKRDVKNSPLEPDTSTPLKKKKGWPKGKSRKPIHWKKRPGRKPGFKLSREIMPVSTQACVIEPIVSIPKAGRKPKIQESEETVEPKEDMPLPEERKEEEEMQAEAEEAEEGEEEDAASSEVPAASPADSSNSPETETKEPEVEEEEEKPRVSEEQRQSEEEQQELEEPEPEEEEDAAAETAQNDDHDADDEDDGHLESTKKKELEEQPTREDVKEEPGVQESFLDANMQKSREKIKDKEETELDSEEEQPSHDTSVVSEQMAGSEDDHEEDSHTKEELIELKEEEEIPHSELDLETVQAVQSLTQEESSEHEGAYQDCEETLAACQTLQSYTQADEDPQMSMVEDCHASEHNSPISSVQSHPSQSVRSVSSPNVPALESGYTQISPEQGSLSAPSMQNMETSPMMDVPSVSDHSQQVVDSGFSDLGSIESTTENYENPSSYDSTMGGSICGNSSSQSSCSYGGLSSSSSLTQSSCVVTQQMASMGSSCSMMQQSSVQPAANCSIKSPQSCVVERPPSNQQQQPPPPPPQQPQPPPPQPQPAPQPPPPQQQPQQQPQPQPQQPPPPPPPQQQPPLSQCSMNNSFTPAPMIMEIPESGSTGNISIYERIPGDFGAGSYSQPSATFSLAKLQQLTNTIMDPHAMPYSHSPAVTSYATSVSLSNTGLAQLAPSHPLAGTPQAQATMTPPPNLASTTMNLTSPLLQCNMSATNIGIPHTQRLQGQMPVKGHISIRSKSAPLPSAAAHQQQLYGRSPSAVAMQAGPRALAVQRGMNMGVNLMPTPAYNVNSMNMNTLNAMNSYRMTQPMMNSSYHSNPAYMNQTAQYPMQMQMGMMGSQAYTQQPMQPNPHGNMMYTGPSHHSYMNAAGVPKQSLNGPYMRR
"kinetic solubility, comparison with otherwise identical compound having X as carbon [1]","Mean Papp A to B (Caco-2 cells; Caco-2, pH 7.40, 2 hours, 37 °C, A to B)","permeability, comparison with corresponding compound having X as carbon (Caco-2 cells; versus compound 47)",SMILES,IC50 (KAT6A)
,,,"COc1ccccc1S(=O)(=O)Nc1noc2cc(Oc3ccccn3)cc(OC(F)F)c12 [Compound 27, N-(4-(difluoromethoxy)-6-(pyridin-2-yloxy)benzo[d]isoxazol-3-yl)-2-methoxybenzenesulfonamide]",100 to 1000 nM
,,,"COc1cccc(OC)c1S(=O)(=O)Nc1noc2cc(Oc3cccnn3)cc(OC(F)F)c12 [Compound 29, N-(4-(difluoromethoxy)-6-(pyridazin-3-yloxy)benzo[d]isoxazol-3-yl)-2,6-dimethoxybenzenesulfonamide]",100 to 1000 nM
improved kinetic solubility,8.59 10^-6 cm/s,improved permeability,"COc1cccc(OC)c1S(=O)(=O)Nc1noc2cc(Oc3nccs3)c3c(c12)OCCC3 [Compound 35, 2,6-dimethoxy-N-(5-(thiazol-2-yloxy)-3,4-dihydro-2H-chromeno[8,7-d]isoxazol-9-yl)benzenesulfonamide]",
